Test results as given in publication PMC3597730, “Novel Phenolic Inhibitors of Small/Intermediate-Conductance Ca^2+-Activated K^+ Channels, KCa3.1 and KCa2.3” (PLoS ONE, 2013).
Entries after “also recorded” stand apart in the source; their conditions may differ. Read-outs that look alike come from different tables or passages of the source.

Columns and labels:
[1] = test system: T1, KCa1.1; test: Whole-cell patch-clamp of KCa1.1 in U251 glioblastoma cells; type: cell-based, human
T1 construct: KCa1.1 in human U251 glioblastoma cells; endogenous in cells; host or cells: U251 glioblastoma cells

[2] = molecular target: T2, KCa3.1 channels in 3T3 fibroblasts (Mus musculus, UniProt O89109); test: Whole-cell patch-clamp of KCa3.1 currents in 3T3 fibroblasts; type: cell-based; settings: for remaining activity at 1 µM: compound 1 µM, read-out: % of control at 1 µM; for KCa3.1 blocking effect (in words): concentrations up to 50 µM as in Table 1
T2 construct: KCa3.1 channels in 3T3 fibroblasts; endogenous in cells; host or cells: 3T3-L1 mouse embryonic fibroblasts

[3] = test system: calcium-activated chloride channels; settings: previously shown; no reference given; read-out: reported EC50, calcium-activated chloride channels; cited from earlier work
[4] = molecular target: T3, hKCa2.3 (Homo sapiens, UniProt Q9UGI6); test: Whole-cell patch-clamp of hKCa2.3 in COS7 cells; type: cell-based
T3 construct: expressed in transfected cells; host or cells: COS7
T3 sequence (Q9UGI6 whole entry): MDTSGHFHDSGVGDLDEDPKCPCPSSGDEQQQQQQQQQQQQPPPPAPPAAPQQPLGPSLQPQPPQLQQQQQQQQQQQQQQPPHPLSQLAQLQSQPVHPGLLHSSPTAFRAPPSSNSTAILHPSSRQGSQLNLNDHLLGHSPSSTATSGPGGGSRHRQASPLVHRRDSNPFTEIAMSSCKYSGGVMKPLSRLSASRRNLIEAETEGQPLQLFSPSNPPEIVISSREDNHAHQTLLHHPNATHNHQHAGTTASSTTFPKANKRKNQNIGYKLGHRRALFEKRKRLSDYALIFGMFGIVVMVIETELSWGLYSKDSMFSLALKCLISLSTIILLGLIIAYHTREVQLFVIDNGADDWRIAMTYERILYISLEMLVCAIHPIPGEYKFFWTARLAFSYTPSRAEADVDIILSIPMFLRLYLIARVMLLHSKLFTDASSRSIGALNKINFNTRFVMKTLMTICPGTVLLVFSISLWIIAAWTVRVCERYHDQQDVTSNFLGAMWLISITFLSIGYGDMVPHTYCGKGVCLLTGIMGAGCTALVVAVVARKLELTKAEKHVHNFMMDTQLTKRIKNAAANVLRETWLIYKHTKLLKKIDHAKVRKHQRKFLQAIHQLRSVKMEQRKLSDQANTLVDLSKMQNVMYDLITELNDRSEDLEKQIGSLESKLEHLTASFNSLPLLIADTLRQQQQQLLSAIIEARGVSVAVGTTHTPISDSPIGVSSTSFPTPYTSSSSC

[5] = test system: T4, hERG; test: Whole-cell patch-clamp of hERG tail currents in HEK293 cells; type: cell-based, human; settings: human, HEK293 cells expressing hERG, pH 7.4, hERG
T4 construct: expressed in transfected cells; gift of Craig January, University of Wisconsin

[6] = test system: T5, hERG channels; test: as above; type: cell-based, human; settings: 13b 1 µM; caffeic acid, flufenamic acid 10 µM (Table S1)
T5 construct: expressed in transfected cells; gift of Craig January, University of Wisconsin

[7] = test system: non-selective cation channels; settings: previously shown; no reference given; read-out: reported EC50, non-selective cation channels; cited from earlier work
[8] = molecular target: T6, hKv1.2 (Homo sapiens, UniProt P16389); test: Whole-cell patch-clamp of cloned hKv1.2; type: cell-based
T6 construct: expressed in transfected cells; host or cells: B82 murine fibroblasts (Methods)
T6 sequence (P16389 whole entry): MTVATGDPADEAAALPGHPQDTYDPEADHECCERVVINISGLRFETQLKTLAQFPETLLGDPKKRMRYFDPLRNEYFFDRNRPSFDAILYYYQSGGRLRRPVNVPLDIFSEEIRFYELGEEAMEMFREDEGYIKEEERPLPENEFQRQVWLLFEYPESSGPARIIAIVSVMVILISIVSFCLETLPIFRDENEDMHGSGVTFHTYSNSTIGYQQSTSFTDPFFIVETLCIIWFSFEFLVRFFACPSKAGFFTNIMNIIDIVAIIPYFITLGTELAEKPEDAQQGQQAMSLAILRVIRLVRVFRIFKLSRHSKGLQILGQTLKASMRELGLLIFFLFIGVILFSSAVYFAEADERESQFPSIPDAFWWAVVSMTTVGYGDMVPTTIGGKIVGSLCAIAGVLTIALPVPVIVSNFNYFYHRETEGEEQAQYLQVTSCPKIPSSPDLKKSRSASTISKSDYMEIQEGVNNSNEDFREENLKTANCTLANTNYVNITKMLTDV

[9] = test system: mixed KCa3.1 and KCa2.3 currents in PCAEC; test: Whole-cell patch-clamp of KCa currents in porcine coronary artery endothelial cells; type: cell-based
[10] = test system: inward-rectifying K+ current (Kir) in U251 glioblastoma cells; test: Whole-cell patch-clamp of native inward-rectifying K+ current in U251 cells; type: cell-based, human; settings: 1 µM, at −100 mV, n = 5
[11] = test system: porcine coronary artery rings; test: Isometric myography: U46619-induced contractions; settings: 13b 0.5 µM
Procedure: (§1) Myography on porcine coronary artery rings was performed as described in detail previously, [30]. In brief, left anterior descending arteries or posterior descending arteries were cut into rings (3 mm long) and rings were mounted onto a isometric force transducer (Pioden UF1, Graham Bell House, Canterbury, UK). The organ bath contained a 5 ml Krebs buffer maintained at 37°C and gassed with 95% O2/5% CO2. The composition of the Krebs buffer was as follows (in mM): NaCl 120, NaHCO3 24.5, CaCl2 2.4, KCl 4.7, MgSO4 1.2, KH2PO4 1 and glucose 5.6, pH 7.4. Each ring was passively stretched to an initial tension of 1 gr (10 mN). Changes in force were monitored and recorded on a computer using a Mac Lab System/8e program (AD Instruments Inc, Milford, Ma, USA), and digitalized at a sample rate of 0.5 sec.
(§2) To measure specifically endothelium-derived hyperpolarization-mediated vasorelaxation (EDH), the NO-synthase blocker, Nω-nitro-L-arginine (L-NNA, 300 µM), and the cyclooxygenase blocker, indomethacin (10 µM), were added to the buffer. Preparations were washed three times and were allowed to equilibrate for 40 min. Within this period, the incubation medium was renewed every 20 min. […] Ten min later, bradykinin (1 µM) was added for another 10 min, followed by washout (over at least 10 min). This protocol was repeated (2nd stimulation). Thereafter, we performed a 3rd round of pre-contraction and vasorelaxation, but using the vasospasmic thromboxane analogue U46619 (0.2 µM) as vasocontracting agent. At the end of the experiments, rings were allowed to contract maximally in a KCl (60 mM) buffer for 10 min followed by addition of the compounds. Finally, sodium nitroprusside (10 µM) was added to achieve maximal endothelium-independent vasorelaxation.
(§3) DMSO as the vehicle had no vasoactive effect per se on the tissue. Other compounds were dissolved in Milli-Q water.
(§4) For data analysis, we determined absolute increases in force to 5-HT, U46619, or 60 mM KCl. Bradykinin-induced relaxations were determined as % change of pre-contraction to either vasocontracting compound and relative to the fully relaxed state (in the absence of the vasocontracting agent).

[12] = test system: porcine coronary artery rings; test: Isometric myography: 5-HT-induced contractions; settings: 13b 0.5 µM
Procedure: as §1, §2, §3, §4

[13] = test system: porcine coronary artery rings; test: Isometric myography: contractions to 60 mM K+; settings: 13b 0.5 µM, SKA-31 1 µM, alone or combined
Procedure: as §1
as §2, with “vasorelaxation. […]” for “vasorelaxation.”
as §4

[14] = test system: porcine coronary artery rings; test: Isometric myography: bradykinin-induced (EDH) relaxation; settings: 13b 0.5 µM
Procedure: as §1, §2, §3, §4

[15] = test system: porcine coronary artery rings; test: Isometric myography: endothelium-independent relaxation to sodium nitroprusside; settings: pre-contracted by 60 mM K+; 13b 0.5 µM, SKA-31 1 µM, alone or combined
Procedure: as §1
as §2, with “vasorelaxation. […]” for “vasorelaxation.”
as §4

[16] = molecular target: T7, cloned human KCa3.1 channel (Homo sapiens, UniProt O15554); test: Inside-out patch recordings from hKCa3.1-overexpressing HEK293 cells; type: biochemical; settings: inside-out patches
T7 construct: expressed in transfected cells; gift of Khaled Houamed, University of Chicago

[17] = molecular target: T3, hKCa2.3; test: Inside-out single-channel experiments on hKCa2.3; type: biochemical
[18] = test system: T8, hKv1.3; test: Whole-cell patch-clamp of cloned hKv1.3; type: cell-based, human
T8 construct: expressed in transfected cells

[19] = test system: 3T3 fibroblasts; test: Cell proliferation assay (Janus B Green staining); type: cell-based, mouse
Procedure: Cell proliferation was spectrophotometrically assessed as described previously with some modifications. Briefly, 3T3 fibroblasts (1500 cells/well) were seeded in 96-well plates (TPP. Switzerland), cultured in DMEM containing 10% FCS (Lonza, Switzerland) with 13b or vehicle (DMSO), and formalin-fixed at days 0,1,2 and 3. To exclude the possibility that DMSO as vehicle affected the cell viability per se, final DMSO concentrations were the same for each concentration of 13b and the controls. Fixed cells were stained for 5 minutes with 50 ul/well of 0.3% Janus B Green dye (Acros Organics, Belgium) at room temperature with constant stirring followed by a de-staining step with water. Dye was eluted with 200 ul/well of 0.5 M HCl of hydrochloric acid and top-read measurements of absorbance were performed in a microplate reader (Sinergy HT, Biotek, USA) at 595 nm.

[20] = KCa3.1 whole-cell current, 3T3 fibroblasts, 1 µM free Ca2+ in pipette, mean ± SEM, n ≥3
[21] = whole-cell, 3T3 fibroblasts, read-out: EC50 of KCa3.1 inhibition
[22] = 1 µM 5-HT, SKA-31 1 µM, alone or combined
[23] = 1 µM bradykinin, SKA-31 1 µM, alone or combined

SMILES: O=C(O)c1ccccc1Nc1cccc(C(F)(F)F)c1 [Flufenamic Acid, 2-(3-(trifluoromethyl)phenylamino) benzoic acid, reference compound]
- potentiation of KCa1.1 ([1]; 10 µM): 2.7 fold
- % of control at 10 µM ([1]; hKCa1.1, compound 10 µM): 270 ± 106%
- remaining activity at 1 µM [2, 20]: 65 ± 4%
- remaining activity at 10 µM ([2]; KCa3.1 whole-cell current, 3T3 fibroblasts, 1 µM free Ca2+ in pipette, compound 10 µM, mean ± SEM, n ≥3, read-out: % of control at 10 µM): 13 ± 5%
- remaining activity at 50 µM ([2]; KCa3.1 whole-cell current, 3T3 fibroblasts, 1 µM free Ca2+ in pipette, compound 50 µM, mean ± SEM, n ≥3, read-out: % of control at 50 µM): 2.5 ± 0.3%
- remaining activity at 10 µM ([2]; read-out: KCa3.1 current blocked, % of control): 6 ± 1%
- KCa3.1 blocking effect (in words) ([2]; whole-cell, 3T3 fibroblasts): Complete inhibition
- EC50 [2, 21]: 1.6 µM
- EC50 [3]: ~30 µM
- remaining activity at 10 µM ([4]; COS-7, hKCa2.3, compound 10 µM, mean ± SEM, n ≥ 3, read-out: % of control at 10 µM): 104 ± 5%
- remaining activity at 50 µM ([4]; COS-7, hKCa2.3, compound 50 µM, mean ± SEM, n ≥ 3, read-out: % of control at 50 µM): 100 ± 2%
- KCa2.3 blocking effect (in words) ([4]; micromolar concentrations): no blocking effects
- activity at 10 µM ([5]; compound 10 µM, read-out: % of control at 10 µM): 116 ± 15%
- hERG effect (in words) [6]: slight potentiation
- EC50 [7]: ~5 µM
- hKv1.2 blocking effect (in words) ([8]; flufenamic acid and caffeic acid 10 and 50 µM, 13c 1 µM): did not block
- remaining activity at 10 µM ([8]; hKv1.2, compound 10 µM, read-out: % of control at 10 µM): 106 ± 5%
- remaining activity at 50 µM ([8]; hKv1.2, compound 50 µM, read-out: % of control at 50 µM): 100 ± 2%
- mixed KCa3.1/KCa2.3 current, % of control ([9]; 10 µM, n = 2): 25±3%
- mixed KCa3.1/KCa2.3 current, % of control ([9]; 50 µM, n = 1): 3%

SMILES: O=C(OCc1cc(COC(=O)c2ccc(O)c(F)c2)cc(COC(=O)c2ccc(O)c(F)c2)c1)c1ccc(O)c(F)c1 [Compound 13b, [3,5-bis[(3-fluoro-4-hydroxy-benzoyl)oxymethyl]phenyl]methyl 3-fluoro-4-hydroxy-benzoate]
- KCa1.1 effect (in words) ([1]; U251 glioblastoma cells, 13b 1 µM, caffeic acid 10 µM): not blocked
- % of control at 1 µM ([1]; hKCa1.1, compound 1 µM): 103 ± 3%
- remaining activity at 1 µM [2, 20]: 4 ± 1%
- EC50 ([2]; KCa3.1 whole-cell, 1 µM SKA-31, read-out: EC50 to suppress the SKA-31-induced current): 0.161 ± 0.121 µM
- Hill coefficient ([2]; KCa3.1 whole-cell, 3T3 fibroblasts): ~1
- KCa3.1 blocking effect (in words) ([2]; whole-cell, 3T3 fibroblasts): Complete inhibition
- EC50 [2, 21]: 0.019 µM
- Kir current, % of control [10]: 98±2%
- Δg ([11]; 0.2 µM U46619, SKA-31 1 µM, alone or combined): 2.8 ± 0.2 g
- change of U46619 contraction vs. vehicle ([11]; alone or with SKA-31 1 µM): +29%
- remaining activity at 1 µM ([4]; COS-7, hKCa2.3, compound 1 µM, mean ± SEM, n ≥ 3, read-out: % of control at 1 µM): 4 ± 2%
- Hill coefficient ([4]; hKCa2.3 whole-cell): ~1
- EC50 ([4]; whole-cell, COS7 cells, 1 µM free Ca2+, read-out: EC50 of hKCa2.3 inhibition): 0.00036 µM
- Δg, 1st stimulation [12, 22]: 0.7 ± 0.1 g
- Δg, 2nd stimulation [12, 22]: 0.7 ± 0.1 g
- change of amplitude of 5-HT contraction vs. vehicle, 1st stimulation [12]: +74%
- change of amplitude of 5-HT contraction vs. vehicle, 2nd stimulation [12]: +90%
- Δg, contraction to 60 mM K+ [13]: 3.1 ± 0.3 g
- % relaxation, 5-HT-precontraction [14, 23]: 24±2%
- % relaxation, U46619-precontraction [14, 23]: −1±1%
- continued contraction of U46619-precontracted rings with bradykinin [14]: +1 % contraction
- activity at 1 µM ([5]; compound 1 µM, read-out: % of control at 1 µM): 94 ± 3%
- hERG effect (in words) [6]: not blocked; also recorded: did not block
- inhibition at 0.1 µM ([8]; 100 nM): 19%
- remaining activity at 1 µM ([8]; hKv1.2, compound 1 µM, read-out: % of control at 1 µM): 11 ± 2%
- EC50 ([8]; read-out: EC50 of hKv1.2 block): 0.55 ± 0.01 µM
- block of current potentiated by 1 µM SKA-31 (in words) ([9]; 1 µM 13b): almost fully blocked
- KCa current, % of control ([9]; whole-cell, compound 1 µM): 14±7%
- % relaxation to 10 µM SNP [15]: 84±4%
- EC50 ([16]; HEK293, 0.5 µM free Ca2+, read-out: EC50 of hKCa3.1 inhibition): 0.014 µM
- Hill coefficient ([16]; hKCa3.1): ~1
- EC50 ([17]; inside-out single channel experiments, read-out: EC50 of hKCa2.3 inhibition): 0.000241 ± 0.000129 µM
- Hill coefficient ([17]; inside-out, hKCa2.3): ~1
- hKv1.3 blocking effect (in words) ([18]; concentration of 10 µM as printed): not inhibited; also recorded: did not block
- % of control at 1 µM ([18]; hKv1.3, compound 1 µM): 96.4 ± 0.2%
- change of proliferation vs. vehicle ([19]; 0.5 µM, day 3): −23%
- change of proliferation vs. vehicle ([19]; 2 µM, day 3): –20%
- cytotoxicity (in words) ([19]; cultured 3T3 fibroblasts): not cytotoxic; also recorded: non-toxic
- inhibition (reduction) of cell proliferation ([19]; day 3, 0.5 and 2 µM): 20%
